Among the data in US20240059728A1, “NOVEL GALACTOSIDE INHIBITOR OF GALECTINS” (GALECTO BIOTECH AB, priority 2021, published 2024) are Kd values, retold here.

One assay concerns the target Galectin-1 (Homo sapiens (Human), UniProt P09382). Kind of assay: fluorescence anisotropy assay, galectin-1. Format: binding. The conditions noted are these: inhibition of the interaction between galectin and a fluorescein tagged saccharide probe. As to the method: (§1) The affinity of Example 1-14 for galectins were determined by a fluorescence anisotropy assay where the compound was used as an inhibitor of the interaction between galectin and a fluorescein tagged saccharide probe as described Sörme, P., Kahl-Knutsson, B., Huflejt, M., Nilsson, U. J., and Leffler H. (2004) Fluorescence polarization as an analytical tool to evaluate galectin-ligand interactions. Anal. Biochem. 334: 36-47, (Sarme et al., 2004) and Monovalent interactions of Galectin-1 By Salomonsson, Emma; Larumbe, Amaia; Tejler, Johan; Tullberg, Erik; Rydberg, Hanna; Sundin, Anders; Khabut, Areej; Frejd, Torbjorn; Lobsanov, Yuri D.; Rini, James M.; et al, From Biochemistry (2010), 49(44), 9518-9532, (Salomonsson et al., 2010).
(Fluorescence polarisation rises when a labelled molecule tumbles more slowly, as on binding a larger partner.)

The next assay addresses Galectin-3 (Homo sapiens (Human), UniProt P17931). As to the kind of experiment: fluorescence anisotropy assay, galectin-3. Format: binding. Particulars: inhibition of the interaction between galectin and a fluorescein tagged saccharide probe. Here is the method: as §1

Sequence of Galectin-3 (P17931 whole entry): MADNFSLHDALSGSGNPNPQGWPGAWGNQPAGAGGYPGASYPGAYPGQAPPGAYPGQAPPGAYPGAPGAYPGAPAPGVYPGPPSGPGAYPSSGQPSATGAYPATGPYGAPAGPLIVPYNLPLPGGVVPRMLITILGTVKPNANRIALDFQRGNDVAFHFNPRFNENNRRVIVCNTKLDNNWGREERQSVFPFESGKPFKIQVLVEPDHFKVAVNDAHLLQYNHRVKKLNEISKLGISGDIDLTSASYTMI
Sequence of Galectin-1 (P09382 whole entry): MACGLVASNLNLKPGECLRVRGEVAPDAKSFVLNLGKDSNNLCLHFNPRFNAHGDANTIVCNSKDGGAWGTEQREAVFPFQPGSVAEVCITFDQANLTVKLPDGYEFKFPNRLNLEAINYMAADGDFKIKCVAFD

In general, Kd refers to the constant that tells how readily two partners part at equilibrium. Take `OCC1O[C@@H](S[C@@H]2O[C@H](CO)C(O)C(n3cc(-c4csc(O)n4)nn3)[C@H]2O)C(O)[C@@H](n2cc(-c3cc(F)c(F)c(F)c3)nn2)[C@H]1O` (stereo partly drawn) [Example 1, 3,3′-Dideoxy-3-[4-(3,4,5-trifluorophenyl)-1H-1,2,3-triazol-1-yl]-3′-[4-(2-hydroxythiazol-4-yl)-1H-1,2,3-triazol-1-yl]-1,1′-sulfanediyl-di-β-D-galactopyranoside]: the Kd was found to be 3 nM on Galectin-1 and 0.4 nM at Galectin-3.
Take `OCC1O[C@@H](S[C@@H]2O[C@H](CO)C(O)C(n3cc(-c4ccc(Cl)c(F)c4F)nn3)[C@H]2O)C(O)[C@@H](n2cc(-c3ccc(Cl)c(F)c3F)nn2)[C@H]1O` (stereo partly drawn) [Example 14, 1,1′-Sulfanediyl-bis-{3-[4-(4-chloro-2,3-difluorophenyl)-1H-1,2,3-triazol-1-yl]-3-deoxy-β-D-galactopyranoside}]: the results for the dissociation constant Kd at Galectin-1 and on Galectin-3 were 450 nM and 12 nM, respectively.
On the same counts, the results for `OCC1O[C@@H](S[C@@H]2O[C@H](CO)C(O)C(n3cc(-c4csc(O)n4)nn3)[C@H]2O)C(O)[C@@H](n2cc(-c3cc(F)c(Cl)c(F)c3)nn2)[C@H]1O` (stereo partly drawn) [Example 2, 3-[4-(4-Chloro-3,5-difluorophenyl)-1H-1,2,3-triazol-1-yl]-3,3′-dideoxy-3′-[4-(2-hydroxythiazol-4-yl)-1H-1,2,3-triazol-1-yl]-1,1′-sulfanediyl-di-β-D-galactopyranoside] are 4 nM and 0.3 nM.
On to `Nc1nc(-c2cn(C3C(O)[C@@H](CO)O[C@@H](S[C@@H]4OC(CO)[C@H](O)[C@H](n5cc(-c6cc(F)c(Cl)c(F)c6)nn5)C4O)[C@@H]3O)nn2)cs1` (stereo partly drawn) [Example 3, 3′-[4-(2-Aminothiazol-4-yl)-1H-1,2,3-triazol-1-yl]-3-[4-(4-chloro-3,5-difluorophenyl)-1H-1,2,3-triazol-1-yl]-3,3′-dideoxy-1,1′-sulfanediyl-di-β-D-galactopyranoside], for which the Kd on Galectin-1 amounted to 9 nM; on Galectin-3, 1 nM.
